Measured values from US9303017B2, “2,5-disubstituted-pyridyl nicotinic ligands, and methods of use thereof” (Georgetown University, priority 2011, dated 2016).

What was measured:
α3β4 nAChR = α3β4 nAChR (Rattus norvegicus (Rat), UniProt P04757+P12392); assay: [3H]-epibatidine competition binding, α3β4; conditions: Table 1; mean of 3 to 5 measurements
Description: (§1) In Vitro Binding Affinities for nAChR Subtypes. […] To determine selectivities of these compounds in binding assays among the three predominant nAChR subtypes, α3β4, α4β2 and α7, the ratios of Ki values (α3β4/α4β2 and α7/α4β2) were determined.
(§2) Cell Lines and Cell Culture. The cell lines expressing defined rat nAChR subtypes were established previously by stably transfecting HEK 293 cells with rat nAChR subunit genes. The cell line expressing human α4β2 nAChRs, YXα4β2H1, was established recently. These cell lines were maintained in minimum essential medium (MEM) supplemented with 10% fetal bovine serum, 100 units/mL penicillin G, […] and selective antibiotics at 37° C. with 5% CO2 in a humidified incubator. Fetal bovine serum was provided by Gemini Bio-Products (Woodland, Calif.). Tissue culture medium and antibiotics were obtained from Invitrogen Corporation (Carlsbad, Calif.), unless otherwise stated.
(§3) Briefly, cultured cells at >80% confluence were removed from their flasks (80 cm^2) with a disposable cell scraper and placed in 10 mL of 50 mM Tris.HCl buffer (pH 7.4, 4° C.). The cell suspension was centrifuged at 10,000×g for 5 min and the pellet was collected. The cell pellet was then homogenized in 10 mL buffer with a polytron homogenizer and centrifuged at 36,000 g for 10 min at 4° C. The membrane pellet was resuspended in fresh buffer, and aliquots of the membrane preparation were used for binding assays. […] Bound and free ligands were separated by vacuum filtration through Whatman GF/C filters treated with 0.5% polyethylenimine. The filter-retained radioactivity was measured by liquid scintillation counting. Specific binding was defined as the difference between total binding and nonspecific binding. Data from competition binding assays were analyzed using Prism 5 (GraphPad Software, San Diego, Calif.).
(§4) Pharmacological Properties. We measured the in vitro binding affinities of the ligands for defined receptor subtypes (α2β2, α2β4, α3β2, α3β4, α4β2, α4β4, α6β2, α6β4, and α7) expressed in stably transfected cell lines. […] Rat forebrain homogenates were included to allow comparison between the heterologous and native α4β2 and α7 nAChRs. See Table 1 for binding affinity values (Ki) of the ligands at the three major nAChR subtypes (α3β4. α4β2 and α7).

α7 nAChR = α7 nAChR (Rattus norvegicus (Rat), UniProt Q05941); type: binding; conditions: Table 1; mean of 3 to 5 measurements
Description: as §1, §2, §3, §4

rat α3β4 nAChRs = rat α3β4 nAChRs (Rattus norvegicus (Rat), UniProt P04757+P12392); assay: 86Rb+ efflux assay (activation and desensitization), α3β4; type: cell-based; conditions: read-out: IC50(10′) α3β4 nAChRs
Description: In Vitro Effects on nAChR Function. […] Their agonist activities were assessed by measuring stimulated ^86Rb^+ efflux from stably transfected cells, either expressing human α4β2 nAChRs or rat α3β4 receptors.
as §2
^86Rb^+ Efflux Assay. Functional properties of compounds at nAChRs expressed in the transfected cells were measured using ^86Rb^+ efflux assays as described previously. In brief, cells expressing human α4β2 or rat α3β4 nAChRs were plated into 24-well plates coated with poly-D-lysine. The plated cells were grown at 37° C. for 18 to 24 hour to reach 85-95% confluence. The cells were then incubated in growth medium (0.5 mL/well) containing ^86Rb^+ (2 μCi/mL) for 4 hour at 37° C. The loading mixture was then aspirated, and the cells were washed four times with 1 mL buffer (15 mM HEPES, 140 mM NaCl, 2 mM KCl, 1 mM MgSO4, 1.8 mM CaCl2, 11 mM Glucose, pH 7.4). One mL of buffer with or without compounds to be tested was then added to each well. After incubation for 2 min, the assay buffer was collected for measurements of ^86Rb^+ released from the cells. Cells were then lysed by adding 1 mL of 100 mM NaOH to each well, and the lysate was collected for determination of the amount of ^86Rb^+ that was in the cells at the end of the efflux assay. Radioactivity of assay samples and lysates was measured by liquid scintillation counting. Total loading (cpm) was calculated as the sum of the assay sample and the lysate of each well. The amount of ^86Rb^+ efflux was expressed as a percentage of ^86Rb^+ loaded. […] For obtaining EC50 and Emax values, stimulation curves were constructed in which 8 different concentrations of a ligand were included in the assay. […] EC50, Emax and IC50(10′) values were determined by nonlinear least-squares regression analyses (GraphPad, San Diego, Calif.).
The functional properties of the ligands were determined by ^86Rb^+ efflux assays in cells expressing α3β4 and α4β2 nAChR subtypes. The functional activity of each ligand was measured for its agonism, antagonism and desensitization ability. Agonist activity for each of the ligands was tested at eight different concentrations. […] The full concentration-effect curves generated potency (EC50) and efficacy (Emax) of each ligand. […] We tested each ligand for antagonist activity at eight concentrations. The potency (IC50(0′)) of each ligand as an antagonist was derived from the full concentration-effect curves.

ferrets = assay: Emesis studies in ferrets; type: in vivo, ferret (Mustela putorius furo); conditions: 1-30 mg/kg s.c., 1 hr observation
Description: Emetic Effects of Compound (S)-15 (YL-1-127) in Ferrets. Effects of (S)-15 in causing nausea and emesis were assessed in a ferret model. For comparison, varenicline was also tested. […] In general, all animals remained alert and active with periods of inactivity that mirrored their baseline behavior within the 1 hr observation period.
In one animal, this behavior was accompanied by oral stereotypy (licking), whereas in two animals it was interspersed by episodes of backward walking. On the average, these behaviors manifested around ˜2.20 min. […] Occasionally, when animals tried to ambulate they would immediately cease their movement after each attempt. This would be followed by a momentary increase in breathing, giving the impression that the animal was in distress.
General Procedures for Emesis Studies in Ferrets. Studies were undertaken in male ferrets (Mustela putorius furo) weighing 0.9-1.5 kg (Marshall Farms, N.Y.). They were housed in controlled conditions of room temperature (22° C.) and light (12:12 h light-dark cycle) with free access to food and water. Prior to each experiment, food was withheld overnight, whereas water was provided ad libitum.
Emetic testing consisted of placing animals individually in a polycarbonate enclosure. Following a 30 min acclimation period, each animal randomly received a subcutaneus injection of varencline or compound (S)-15 (YL-1-127) in the subscapular region. A 60 min observation and video recording followed the drug administration. […] All drugs were dissolved in sterile saline.
Video analysis of the incidence of emesis, stereotypical behaviors (such as licking, mouth-clawing, backward walking, gagging, and burying of the head in cage) and GI side effects (diarrhea) was done off-line. Stereotypical behaviors are thought to be reflective of a subjective sensation of nausea. The emetic index of a drug was calculated as the […] of animals displaying emesis (one or more times in 60 min) divided by the total number of animals tested. An emetic episode was defined as the forceful oral expulsion of liquid or solid upper gastrointestinal contents that is temporally separated from another by at least 30 s.
The Nausea Index for the stereotypical behaviors was derived from the mean±SEM number of nausea behaviors observed among all animals in a given treatment group. Significance was determined at p<0.05.

`CCCCC#Cc1cnc(C)c(OC[C@@H]2CCN2)c1` [(S)-15, (S)-3-(azetidin-2-ylmethoxy)-5-(hex-1-ynyl)-2-methylpyridine] was tested, and the Ki (α3β4 nAChR) was 230 µM, the Ki (α7 nAChR) was 93 µM and the IC50 (rat α3β4 nAChRs) was over 10 µM. The “emetic episodes or stereotypical behaviors indicative of nausea” value (ferrets) was “did not elicit any emetic episodes or stereotypical behaviors”.
